Reference: patent publication US8580789B2, “Treating glaucoma” (The Cleveland Clinic Foundation, priority 2007, dated 2013)

System: peripapillary sclera
Assay: Surface wave velocity (stiffness) of the peripapillary sclera of whole globes, Sonic Eye elastometer
Parameters: species or system porcine
Details: for Mean PPS Stiffness, After Glutaraldehyde Crosslinking: Example 2, GTA annular sponge on PS only ~30 min; for Stiffness of Peripapillary Sclera, Post-crosslinking Mean ± SD: 4% GTA on PS only 30 min
Experimental: Surface wave velocity (SWV) is a measure of tissue stiffness, and is performed by detecting the velocity of an ultrasonic wave between 2 points (Sonic Eye, Priavision, Menlo Park, Calif.) (Dupps W J, et al., J Refract Surg; 23: 66-75 (2007)). 19 porcine eyes were divided into 2 groups. In group 1 (6 eyes), the SWV across the exposed optic nerve/lamina cribrosa complex (ON/LCC) was initially measured at the eyes' physiologic IOP and at 100 mmHg. The porcine globes were cannulated with IV tubing to facilitate the change in IOP. In group 2 (13 eyes), the pre-treatment SWV was measured across the same region and atop the peri-papillary sclera, after which both regions were treated with riboflavin 1%, Q 5 min×6, and UVA irradiation (˜365 nm at 3 mW/cm^2) for 30 min per eye. The SWV was then re-measured in each eye at the pre-treatment IOP and at 100 mmHg.
An annular sponge soaked in GTA was exposed to the peripapillary sclera for ˜30 minutes, and not the ON/LCC. Measurements were repeated as above, but also along each quadrant of peripapillary sclera to ensure uniformity and symmetry of crosslinking around the ON/LCC. The results are summarized as follows:
Eighteen porcine globes were divided evenly into 3 groups. The optic nerves were transected to expose the ON/LC, and each globe was infused through an in-line pressure transducer for direct IOP control. Surface wave velocity, a non-destructive measure of tissue stiffness, was measured across the ON/LC and PS before and after collagen crosslinking at IOP of 10 and 30 mmHg (groups 1 and 2) and at each globe's preinflation IOP and 80 mmHg (group 3). In group 3, papillary strain was measured by analyzing the displacement of fiducial marks immediately adjacent to the ON/LC using digital photography.
Surface wave velocity (SWV) is a measure of tissue stiffness that has been used in dermatologic applications to measure age-related changes (Potts R O, et al., J Invest Dermatol.; 82(1):97-100 (1984); Potts R O, et al., J Biomech.; 16(6):365-372 (1983); Davis B R, et al., Exp Gerontol; 24(3):201-210 (1989)), softening effects of tissue hydration and skin creams (Vexler A, et al., J Invest Dermatol; 113(5):732-739 (1999)), and sclerosing effects of radiation on breast skin (Gorodetsky R, et al., Int J Radiat Oncol Biol Phys.; 45(4):893-900 (1999)). When acoustic waves in the 0.5 to 30 kHz frequency range are used, propagation speed in skin is related to the density and stiffness of the tissue (Pereira J M, et al., J Biomech.; 23(8):745-751 (1990)). A prototype handheld ocular surface elastometer (Sonic Eye, Priavision, Menlo Park, Calif.) with an operating frequency within this range (4 kHz) and a fixed 4.5 mm wave propagation distance has been described in detail elsewhere (Dupps W J Jr, et al., J Refract Surg.; 23(1):66-75 (2007)). The Sonic Eye was used in this study as a non-destructive means of measuring local in situ tissue stiffness across and around the optic nerve head.
Eighteen porcine eyes were obtained from a local abattoir (Heffelfingers Meats, Inc., Jeromesville, Ohio) and were used within 24 hours postmortem. The optic nerves were dissected under microscopic visualization to expose the ON/LC (FIG. 1). […] Replicate SWV measurements were obtained at a rate of 1 per second with a triggering foot pedal to produce at least 5 measurements that were subsequently averaged for each region of interest. A PC software interface converted the time-of-flight data to velocity in meters per second (m/s), and the velocity data were exported to Excel (v. 11, SP2; Microsoft Corp, Redmond, Wash.) and Minitab (v. 14.20; Minitab Inc, State College, Pa.) for statistical analysis.
Three experimental groups of 6 eyes each were defined. In group 1, SWV across the optic nerve/lamina cribrosa complex and peripapillary scleral regions of interest were measured at 10 and 30 mmHg to represent a physiological range of pressures. […]

O=CCCCC=O [GTA, glutaraldehyde]
Mean PPS Stiffness, After Glutaraldehyde Crosslinking (mean IOP 3 mmHg): 83.6 m/s | Mean PPS Stiffness, After Glutaraldehyde Crosslinking (mean IOP 80 mmHg): 97.9 m/s | Stiffness of Peripapillary Sclera, Post-crosslinking Mean ± SD (Example 3 Group 2, High IOP 30 mmHg): 197.0±35.6 m/s | Stiffness of Peripapillary Sclera, Post-crosslinking Mean ± SD (Example 3 Group 2, Low IOP 10 mmHg): 148.4±43.0 m/s | Stiffness of Peripapillary Sclera, Post-crosslinking Mean ± SD (Example 3 Group 3, High IOP 80 mmHg): 190.2±45.8 m/s | Stiffness of Peripapillary Sclera, Post-crosslinking Mean ± SD (Example 3 Group 3, Low IOP = pre-inflation 2-4 mmHg): 149.9±35.7 m/s
